One data set has as its system Apoe-/- mice. As to the kind of experiment: High cholesterol diet-induced atherosclerosis in Apoe-/- mice. In kind it is in vivo, mouse. How it is done:
C57BL/6J (N000013, Gempharmatech, Nanjing, Jiangsu, China) and Apoe^-/- (T001458, Gempharmatech, Nanjing, Jiangsu, China) mice were employed. […] Alipoprotein E knockout (Apoe^-/-) mice were subjected to a 1.25% high cholesterol diet (#D12108C, RESEARCH DIETS, New Brunswick, NJ, USA). After 7 weeks of atherosclerosis induction, intraperitoneal injection of ISOGK (20 mg/kg/day) was initiated and continued for additional 8 weeks. Upon reaching the designated experimental endpoint, blood was collected retro-orbitally, and serum was isolated for subsequent biochemical parameter analysis. Subsequently, the aorta and heart tissues were processed. The aorta was subjected to Oil Red O staining (#G1260, SolarBio, Beijing, China) for en face examination, and cryosections of the aortic sinus were prepared for analysis as we previously described. The serum lipid profile was evaluated utilizing colorimetric kits from Leidu Biotech (Shenzhen, China). Liver samples were gathered, processed into a homogenate, and then centrifuged. The resulting transparent supernatant was utilized for assessing hepatic triglyceride (TG) and total cholesterol (TC) concentrations using kits obtained from commercial sources (290-63701 for TG, 294-65801 for TC; Wako, Tokyo, Japan and E-BC-K261-M for TG, E-BC-K109-M for TC; Elabscience, Wuhan, China). The levels of TG and TC were normalized against the weight of the liver tissue. Kits for antioxidant-related indicators, including GSH (S0059S, Beyotime, Shanghai, China), MDA (S0131S, Beyotime, Shanghai, China), SOD (S0101S, Beyotime, Shanghai, China), and ox-LDL (CSB-E07933m, CUSABIO, Beijing, China), were detected in mouse serum. Acly^flox/flox mice were sourced from the Shanghai Model Organisms Center (no. NM-CKO-200076). The Institutional Animal Care and Use Committee of the University of Science and Technology of China (USTC) approved all animal care procedures (approval number USTCACUC27120124102, USTCACUC212401038).
Plasma levels of TC, TG, LDL-C, and high-density lipoprotein cholesterol (HDL-C) were determined following the manufacturer's instructions. Liver tissues (30-40 mg) were homogenized in 0.5 mL of cold PBS for hepatic TG and cholesterol measurement. A 0.4 mL homogenate was combined with 1.4 mL of a CHCl3/CH3OH mixture (2:1, v/v) and shaken overnight at room temperature. Following centrifugation at 2,500 × g for a period of 10 min, the organic phase was meticulously transferred and permitted to air-dry. The residual organic material was then reconstituted in 800 μL of ethanol containing 1% Triton X-100, whereby the ethanol served to solubilize the material.
Fast protein liquid chromatography (FPLC) was employed to analyze plasma lipoproteins using 200 μL of pooled plasma samples. The samples were initially filtered through 0.22-µm filters and subsequently loaded onto Tricorn high-performance Superose S-6 10/300GL columns (Amersham Biosciences). Elution was conducted with PBS at a constant flow rate of 0.25 mL/min. The eluted fractions (500 μL each) were subjected to analysis for TG and TC concentrations using the aforementioned commercial assay kits.
Cytokines, including C-reactive protein (CRP) (RK04303, ABclonal, Guangzhou, China), interleukin-1 beta (IL-1 β) (RK00006, ABclonal, Guangzhou, China), and interleukin-6 (IL-6) (RK00008, ABclonal, Guangzhou, China), were extracted from mouse serum and analyzed using enzyme-linked immunosorbent assay (ELISA) kits. All procedures were conducted in accordance with the instructions provided by the manufacturers.
Tissue slides from the male Apoe^-/- mice aortic sinus was washed with PBS and then permeabilized in a solution of PBS with 0.3% BSA and 0.03% Triton X-100 for 1 h at room temperature. These sections were subsequently incubated overnight with primary antibodies at a 1:400 dilution, followed by a 1-h incubation with Alexa Fluor 488 or 546-conjugated sary antibodies at a 1:2000 dilution, also at room temperature. […]

Data set [1] can be described thus: Copper-induced LDL oxidation, agarose gel electrophoresis. The conditions noted are these: varying concentrations, copper 5 μM. On the procedure:
Prior to oxidation, EDTA was removed from LDL solutions (YB-001; Yiyuan Biotechnologies, Guangzhou, China). Subsequently, LDL solutions at a concentration of 0.2 mg/mL were incubated with varying concentrations of ISOGK in PBS for one h at 37 °C. The oxidation process was initiated by combining both native LDL and LDL pretreated with ISOGK with copper sulfate (99.0% purity; Jinshanting New Chemical Reagent Factory, Shanghai, China) to achieve a final copper concentration of 5 μM in PBS. This mixture was then incubated at 37 °C. Agarose gel electrophoresis was performed utilizing 0.5% agarose gels prepared in a sodium barbital buffer, following the stipulated electrophoretic methodology. The procedure was carried out in a 0.075 M sodium barbital buffer at a constant voltage of 55 V for a duration of one h. The relative electrophoretic mobility (REM) was determined by calculating the ratio of the migration distance of oxidized LDL to that of native LDL.

[2] abbreviates: 20 mg/kg/day i.p., 8 weeks, male or female Apoe-/- mice.
Setting [3] is: female Apoe-/- mice, 20 mg/kg/day, 8 weeks.
[4] abbreviates: male Apoe-/- mice, 20 mg/kg/day, 8 weeks.

Take `COc1ccc(-c2cc(=O)c3c(O)cc(O)c(-c4cc(-c5cc(=O)c6c(O)cc(O)cc6o5)ccc4OC)c3o2)cc1` [ISOGK, Isoginkgetin]: in the data set with Apoe-/- mice (setting [2]), the “body weight vs vehicle” value is reported as “No significant changes in body weight”; the “serum ALT and AST” value is on record as “no significant changes”. The “liver H&E and Sirius red staining” value in the data set with Apoe-/- mice (20 mg/kg/day, 8 weeks, Apoe-/- mice) is listed as “no substantial pathological alterations”. Besides, the “necrotic core area in aortic sinus (H&E)” value in the data set on Apoe-/- mice (Apoe-/- mice, 20 mg/kg/day, 8 weeks) was “notable reduction in the necrotic core area”. Further, the “oxidative stress markers in serum (GSH, MDA, SOD, ox-LDL)” value in the data set with Apoe-/- mice (Apoe-/- mice, 8 weeks) was “no significant alterations”. Besides, in the data set with Apoe-/- mice (Apoe-/- mice, Western blot), the “LDLR and ACLY protein expression in liver tissues” value is reported as “no significant change in either LDLR or ACLY protein expression”. Moreover, the “TG levels in serum and liver tissue” value in the data set on Apoe-/- mice (Apoe-/- mice, irrespective of gender) is listed as “notable decline in TG levels”. The “serum LDL-C and HDL-C” value in the data set on Apoe-/- mice (female Apoe-/- mice) is recorded as “remained unchanged”. In addition, in the data set on Apoe-/- mice (setting [3]), the “decrease in aortic sinus lesion area (ORO) vs vehicle” value is listed as 45.74%, the “decrease in liver tissue TC” value is reported as 32.34%, the “decrease in serum TC” value came out at 24.24% and the “reduction of en face aortic lesion area (ORO) vs vehicle” value worked out at 3.88%. The “TG and cholesterol carried in VLDL particles (FPLC)” value in the data set with Apoe-/- mice (female Apoe-/- mice, pooled plasma) was “significant reduction”. For the same compound, the “serum LDL-C” value in the data set with Apoe-/- mice (male Apoe-/- mice) is “decreased the serum levels of LDL-C”. In the data set with Apoe-/- mice (setting [4]), the “content of macrophages in the aortic sinus (immunofluorescence)” value is reported as “substantial decline”; the “content of smooth muscle cells and endothelial cells in the aortic sinus” value is “remained unaltered”; the “decrease in aortic sinus lesion area (ORO) vs vehicle” value was 46.35%; the “decrease in liver tissue TC” value was determined as 29.98%. In addition, in the data set on Apoe-/- mice (setting [4]), the “decrease in serum TC” value was 27.15%. Moreover, the “expression of cholesterol efflux genes in the liver” value in the data set with Apoe-/- mice (male Apoe-/- mice, qRT-PCR) was “no significant differences”. Also, the “serum CRP, IL-1β and IL-6 (ELISA)” value in the data set on Apoe-/- mice (male or female Apoe-/- mice, vehicle vs ISOGK) is on record as “no statistically significant differences”. Moreover, the “antioxidant activity against copper-induced LDL oxidation (REM)” value in data set [1] was “no antioxidant activity”.

Source of the values: publication PMC11984407, “A natural small molecule isoginkgetin alleviates hypercholesterolemia and atherosclerosis by targeting ACLY” (Theranostics, 2025).
